In the supplement of paper PMC3974653:
Structures can show the parent of a compound that is named as a salt.

Test system: MTT (mouse pheochromocytoma)
Test: IC50 of cell viability (ATP content)
Conditions: (24 or 48 h)
Method in brief: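 MTT mouse pheochromocytoma cells in white 1536-well plates were treated for 24 or 48 hrs with library compounds at 8 final concentrations from 0.5 nM to 46 µM. ATP content was measured with CellTiter-Glo luminescence, using positive-control wells as 100% and DMSO wells as 0%. IC50 came from a four-parameter logistic fit.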

SMILES | IC50 of cell viability
FCOC(C(F)(F)F)C(F)(F)F [SEVOFLURANE] | > 46 µM
CC(C)CC(N(C)C)C1(c2ccc(Cl)cc2)CCC1.Cl (stereo not drawn) [SIBUTRAMINE HYDROCHLORIDE] | > 46 µM
CCNc1nc(Cl)nc(NCC)n1 [SIMAZINE] | > 46 µM
CC1=C(NNC(=O)C1)C2=CC=C(N\N=C(\C#N)C#N)C=C2 [SIMENDANUM] | > 46 µM
Nc1c[n+](N2CCOCC2)no1 [SIN-1 chloride] | > 46 µM
CSCC[C@H](NC(=O)[C@@H](Cc1ccc(O[S+](=O)([O-])O)cc1)NC(=O)[C@H](N)CC(=O)O)C(=O)NCC(=O)N[C@@H](Cc1c[nH]c2ccccc12)C(=O)N[C@H](CCSC)C(=O)N[C@H](CC(=O)O)C(=O)N[C@@H](Cc1ccccc1)C(N)=O [SINCALIDE] | > 46 µM
CC(C)(C)C(=O)Oc1ccc([S+](=O)([O-])Nc2ccccc2C(=O)NCC(=O)[O-])cc1.O.O.O.O.[Na+] [SIVELESTAT SODIUM HYDRATE] | > 46 µM
Cc1c[nH]c2ccccc12 [SKATOLUM] | > 46 µM
C=CCN1C[C@H](C)N([C@H](c2ccc(C(=O)N(CC)CC)cc2)c2cccc(OC)c2)C[C@H]1C [SNC 80] | > 46 µM
CCCC(=O)[O-] [SODIUM BUTYRATE] | > 46 µM
F[Si-2](F)(F)(F)(F)F [SODIUM HEXAFLUOROSILICATE] | > 46 µM
O=C(O)CCCc1ccccc1 [SODIUM PHENYLBUTYRATE] | > 46 µM
CCCCC(CC)CCC(CC(C)C)OS(=O)(=O)[O-] (stereo not drawn) [SODIUM TETRADECYL SULFATE] | > 46 µM
O=P(O)(O)OP(=O)(O)OP(=O)(O)O.[NaH] [SODIUM TRIPOLYPHOSPHATE] | > 46 µM
O=C(O[C@H]1CN2CCC1CC2)N1CCc2ccccc2[C@@H]1c1ccccc1 [SOLIFENACIN SUCCINATE] | > 46 µM
CC(N)C(=O)NCC(=O)NC1CSSCC(C(=O)O)NC(=O)C(CO)NC(=O)C(C(C)O)NC(=O)C(Cc2ccccc2)NC(=O)C(C(C)O)NC(=O)C(CCCCN)NC(=O)C(Cc2c[nH]c3ccccc23)NC(=O)C(Cc2ccccc2)NC(=O)C(Cc2ccccc2)NC(=O)C(CC(N)=O)NC(=O)C(CCCCN)NC1=O (stereo not drawn) [SOMATOSTATIN] | > 46 µM
CCCCCCCCCCCCCCCC(=O)OC[C@H](O)[C@H]1OC[C@@H](O)[C@@H]1O [SORBITAN MONOPALMITATE] | > 46 µM
CCCCCCCCCCCC(=O)OCC(O)C1OCC(O)C1O (stereo not drawn) [SORBITANI LAURAS] | > 46 µM
OCC(O)C(O)C(O)C(O)CO (stereo not drawn) [SORBITOL] | > 46 µM
CC(C)NCC(O)c1ccc(N[S+](C)(=O)[O-])cc1 (stereo not drawn) [SOTALOL] | > 46 µM
CC(=O)N[C@@H](CC(=O)O)C(=O)N[C@@H](CCC(=O)O)C(=O)O [SPAGLUMIC ACID] | > 46 µM
CC1CN(c2c(F)c(N)c3c(=O)c(C(=O)O)cn(C4CC4)c3c2F)CC(C)N1 (stereo not drawn) [SPARFLOXACIN] | > 46 µM
O=C(CCCN1CCC2(CC1)C(=O)NCN2c1ccccc1)c1ccc(F)cc1 [SPIPERONE] | > 46 µM
O=C1NCN(c2ccccc2)C12CCN(CC1COc3ccccc3O1)CC2 (stereo not drawn) [SPIROXATRINE] | > 46 µM
CC(C)=CCC/C(C)=C/CC/C(C)=C/CC/C=C(\C)CC/C=C(\C)CCC=C(C)C [SQUALENE] | > 46 µM
CCCCCCCCCCCCCCCCCCO [STEARLY ALCOHOL] | > 46 µM
N#Cc1c(N(CC(=O)[O-])CC(=O)[O-])sc(C(=O)[O-])c1CC(=O)[O-].O.O.O.O.O.O.O.[Sr+2].[Sr+2] [STRONTIUM RANELATE] | > 46 µM
ClCc1ccccc1.O=C1CC2OCC=C3CN4CCC56c7ccccc7N1C5[C@H]2[C@H]3C[C@H]46 (stereo partly drawn) [STRYCHNINE SULFATE] | > 46 µM
